Patent US8575203B2, “Chemical compounds” (Boehringer Ingelheim International GmbH, priority 2010, dated 2013)

Target: Recombinant human PDK1 enzyme (aa 52-556) (Homo sapiens (Human), UniProt O15530)
Experiment: PDK1 kinase assay
Format: biochemical
Details: in vitro kinase assay, His6-PDK1 (aa 52-556), PDKtide, P33-ATP
Summary of the method: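 Radiometric filter-binding read-out after H3PO4 stop. The reaction ran 90 min at RT, started with a 25 μM ATP/γ-33P-ATP solution, after 30 min RT preincubation of the compound series (10 μM top, 1:5 dilutions) with N-His6 PDK1 aa 52-556 (insect-cell expressed, 3.33 ng/well) and 25 μM final PDKtide.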

Recombinant human PDK1 enzyme (aa 52-556), sequence (O15530 52-556): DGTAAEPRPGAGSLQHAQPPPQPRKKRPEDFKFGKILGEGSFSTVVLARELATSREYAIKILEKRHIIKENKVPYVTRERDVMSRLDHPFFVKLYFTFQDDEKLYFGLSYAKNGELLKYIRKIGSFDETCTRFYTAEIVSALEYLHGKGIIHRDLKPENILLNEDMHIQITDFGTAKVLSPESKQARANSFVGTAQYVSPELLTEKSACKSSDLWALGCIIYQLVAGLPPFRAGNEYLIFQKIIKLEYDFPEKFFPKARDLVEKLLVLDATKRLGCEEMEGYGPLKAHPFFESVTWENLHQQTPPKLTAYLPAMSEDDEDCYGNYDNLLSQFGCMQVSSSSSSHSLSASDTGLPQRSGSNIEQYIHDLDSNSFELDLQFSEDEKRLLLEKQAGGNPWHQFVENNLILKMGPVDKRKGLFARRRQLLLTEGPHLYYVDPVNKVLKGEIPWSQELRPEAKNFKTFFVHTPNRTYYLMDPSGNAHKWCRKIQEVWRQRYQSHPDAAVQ

Row | IC50 [nM] | SMILES
1 | 218 | O=C(CNc1ncnc2ccc(C#CCNC(=O)c3cncn(Cc4ccc(F)c(F)c4)c3=O)cc12)c1ccccc1 [II-16]
2 | 488 | NC(=O)[C@@H](Cc1ccccc1)Nc1ncnc2ccc(C#CCNC(=O)c3cncn(Cc4ccc(F)c(F)c4)c3=O)cc12 [II-17]
3 | 41 | COc1ccc(CCNc2ncnc3ccc(C#CCNC(=O)c4cncn(Cc5ccc(F)c(F)c5)c4=O)cc23)cc1 [II-18]
4 | 500 | CN(c1ncnc2ccc(C#CCNC(=O)c3cncn(Cc4ccc(F)c(F)c4)c3=O)cc12)C(C)(C)C [II-19]
5 | 13 | CN(c1ncnc2ccc(C#CCNC(=O)c3cncn(Cc4ccc(F)c(F)c4)c3=O)cc12)C1CC1 [II-20]
6 | 515 | O=C(NCC#Cc1ccc2ncnc(NC3CCOCC3)c2c1)c1cncn(Cc2ccc(F)c(F)c2)c1=O [II-21]
7 | 371 | CN(c1ncnc2ccc(C#CCNC(=O)c3cncn(Cc4ccc(F)c(F)c4)c3=O)cc12)C1CCCCC1 [II-22]
8 | 142 | O=C(NCC#Cc1ccc2ncnc(NC3CCN(Cc4ccccc4)CC3)c2c1)c1cncn(Cc2ccc(F)c(F)c2)c1=O [II-23]
9 | 77 | O=C(NCC#Cc1ccc2ncnc(NC3CCN(CCO)CC3)c2c1)c1cncn(Cc2ccc(F)c(F)c2)c1=O [II-24]
10 | 126 | CC1CN(C)CCC1Nc1ncnc2ccc(C#CCNC(=O)c3cncn(Cc4ccc(F)c(F)c4)c3=O)cc12 (centres unmarked) [II-25]
11 | 21 | CC(=O)N[C@@H]1CCN(c2ncnc3ccc(C#CCNC(=O)c4cccn(Cc5ccc(F)c(F)c5)c4=O)cc23)C1 [II-30]
12 | 137 | CN1CCCC1CCNc1ncnc2ccc(C#CCNC(=O)c3cccn(Cc4ccc(F)c(F)c4)c3=O)cc12 (centres unmarked) [II-39]
13 | 74 | CN(C)C1CCN(c2ncnc3ccc(C#CCNC(=O)c4cccn(Cc5ccc(F)c(F)c5)c4=O)cc23)CC1 [II-40]
14 | 8 | CCN(CC)c1ncnc2ccc(C#CCNC(=O)c3cc(Cl)nn(Cc4ccc(F)c(F)c4)c3=O)cc12 [II-43]
15 | 40 | CN(Cc1cnn(-c2ccc(F)cc2)c1)c1ncnc2ccc(C#CCNC(=O)c3cccn(Cc4ccc(F)c(F)c4)c3=O)cc12 [II-44]
16 | 63 | COc1cccc(CN(C)c2ncnc3ccc(C#CCNC(=O)c4cccn(Cc5ccc(F)c(F)c5)c4=O)cc23)c1 [II-45]
17 | 6 | CN(Cc1cccc2ncccc12)c1ncnc2ccc(C#CCNC(=O)c3cccn(Cc4ccc(F)c(F)c4)c3=O)cc12 [II-46]
18 | 117 | CCN1CCC(CN(C)c2ncnc3ccc(C#CCNC(=O)c4cccn(Cc5ccc(F)c(F)c5)c4=O)cc23)C1 (centres unmarked) [II-47]
19 | 15 | CN(c1ccccc1)c1ncnc2ccc(C#CCNC(=O)c3cncn(Cc4ccc(F)c(F)c4)c3=O)cc12 [II-48]
20 | 50 | CCN(CC)c1ncnc2ccc(C#CCNC(=O)c3c(C)n(CCO)n(Cc4ccc(F)c(F)c4)c3=O)cc12 [II-49]

Row | IC50 [nM] | SMILES
21 | 6 | COc1ccc(CN(C)c2ncnc3ccc(C#CCNC(=O)c4cccn(Cc5ccc(F)c(F)c5)c4=O)cc23)cc1 [II-52]
22 | 486 | CNc1ncnc2ccc(C#CCNC(=O)c3cncn(Cc4ccccc4F)c3=O)cc12 [II-53]
23 | 8 | CCN(CC)c1ncnc2ccc(C#CCNC(=O)c3cccn(C(C)c4ccc(F)c(F)c4)c3=O)cc12 (centres unmarked) [II-54]
24 | 60 | CCN(CC)c1ncnc2ccc(C#CCNC(=O)c3cccn([C@@H](C)c4ccccc4)c3=O)cc12 [II-55]
25 | 6 | CCN(CC)c1ncnc2ccc(C#CCNC(=O)c3cccn([C@H](CO)c4ccccc4)c3=O)cc12 [II-56]
26 | 357 | CNc1ncnc2ccc(C#CCNC(=O)c3cc(NCCN(C)C)nn(Cc4ccc(F)c(F)c4)c3=O)cc12 [II-57]
27 | 10 | CNc1ncnc2ccc(C#CCNC(=O)c3cc(Cl)nn(Cc4ccc(F)c(F)c4)c3=O)cc12 [II-58]
28 | 9 | CNc1ncnc2ccc(C#CCNC(=O)c3cc(OC)nn(Cc4ccc(F)c(F)c4)c3=O)cc12 [II-59]
29 | 8 | CNc1ncnc2ccc(C#CCNC(=O)c3cccn([C@@H](C)c4ccc(F)c(F)c4)c3=O)cc12 [II-60]
30 | 57 | CONc1ncnc2ccc(C#CCNC(=O)c3cncn(Cc4ccc(F)c(F)c4)c3=O)cc12 [II-61]
31 | 16 | CON(C)c1ncnc2ccc(C#CCNC(=O)c3cncn(Cc4ccc(F)c(F)c4)c3=O)cc12 [II-62]
32 | 58 | O=C(NCC#Cc1ccc2ncnc(-c3ccccc3)c2c1)c1cncn(Cc2ccc(F)c(F)c2)c1=O [II-65]
33 | 98 | Cc1ncnc2ccc(C#CCNC(=O)c3cncn(Cc4ccc(F)c(F)c4)c3=O)cc12 [II-66]
34 | 96 | O=C(NCC#Cc1ccc2ncnc(C3=CCNCC3)c2c1)c1cncn(Cc2ccc(F)c(F)c2)c1=O [II-67]
35 | 20 | CN(C)CCCNC(=O)c1cnc2ccc(C#CCNC(=O)c3cncn(Cc4ccc(F)c(F)c4)c3=O)cc2c1 [II-68]
36 | 21 | CNC(=O)c1cnc2ccc(C#CCNC(=O)c3cncn(Cc4ccc(F)c(F)c4)c3=O)c(C)c2c1 [II-69]
37 | 185 | Cc1c(C#CCNC(=O)c2cncn(Cc3ccc(F)c(F)c3)c2=O)ccc2ncc(C(=O)N(C)C)cc12 [II-70]
38 | 1000 | CCN(CC)C(=O)c1cnc2ccc(C#CCNC(=O)c3cncn(Cc4ccc(F)c(F)c4)c3=O)cc2c1 [II-71]
39 | 45 | CNC(=O)c1cnc2ccc(C#CCNC(=O)c3cncn(Cc4ccc(F)c(F)c4)c3=O)cc2c1 [II-72]
40 | 31 | O=C(NC1CC1)c1cnc2ccc(C#CCNC(=O)c3cncn(Cc4ccc(F)c(F)c4)c3=O)cc2c1 [II-73]

Row | IC50 [nM] | SMILES
41 | 12 | CN1CCC(NC(=O)c2cnc3ccc(C#CCNC(=O)c4cncn(Cc5ccc(F)c(F)c5)c4=O)cc3c2)CC1 [II-74]
42 | 31 | CCNC(=O)c1cnc2ccc(C#CCNC(=O)c3cncn(Cc4ccc(F)c(F)c4)c3=O)cc2c1 [II-76]
43 | 53 | CC(C)NC(=O)c1cnc2ccc(C#CCNC(=O)c3cncn(Cc4ccc(F)c(F)c4)c3=O)cc2c1 [II-77]
44 | 402 | CCN1CCN(C(=O)c2cnc3ccc(C#CCNC(=O)c4cncn(Cc5ccc(F)c(F)c5)c4=O)cc3c2)CC1 [II-78]
45 | 201 | CN(C)CCCN(C)C(=O)c1cnc2ccc(C#CCNC(=O)c3cncn(Cc4ccc(F)c(F)c4)c3=O)cc2c1 [II-79]
46 | 64 | CN1CCCC(NC(=O)c2cnc3ccc(C#CCNC(=O)c4cncn(Cc5ccc(F)c(F)c5)c4=O)cc3c2)C1 (centres unmarked) [II-80]
47 | 20 | CN1CC(NC(=O)c2cnc3ccc(C#CCNC(=O)c4cncn(Cc5ccc(F)c(F)c5)c4=O)cc3c2)C1 [II-81]
48 | 531 | O=C(NCC#Cc1ccc2ncc(C(=O)N3CCOCC3)cc2c1)c1cncn(Cc2ccc(F)c(F)c2)c1=O [II-82]
49 | 286 | O=C(NCC#Cc1ccc2ncc(C(=O)N3CCNCC3)cc2c1)c1cncn(Cc2ccc(F)c(F)c2)c1=O [II-83]
50 | 405 | CN1CCN(C(=O)c2cnc3ccc(C#CCNC(=O)c4cncn(Cc5ccc(F)c(F)c5)c4=O)cc3c2)CC1 [II-84]
51 | 1000 | COCCN1CCN(C(=O)c2cnc3ccc(C#CCNC(=O)c4cncn(Cc5ccc(F)c(F)c5)c4=O)cc3c2)CC1 [II-85]
52 | 355 | CN(C)C(=O)c1cnc2ccc(C#CCNC(=O)c3cncn(Cc4ccc(F)c(F)c4)c3=O)cc2c1 [II-86]
53 | 24 | CN1CCC(NC(=O)c2cnc3ccc(C#CCNC(=O)c4cncn(Cc5ccc(F)c(F)c5)c4=O)cc3c2)C1 (centres unmarked) [II-87]
54 | 19 | O=C(NCC#Cc1ccc2nccc(-c3cc[nH]c3)c2c1)c1cncn(Cc2ccc(F)c(F)c2)c1=O [II-88]
55 | 35 | O=C(NCC#Cc1ccc2nccc(-c3cn[nH]c3)c2c1)c1cncn(Cc2ccc(F)c(F)c2)c1=O [II-89]
56 | 86 | O=C(NCC#Cc1ccc2nccc(C3=CCNCC3)c2c1)c1cncn(Cc2ccc(F)c(F)c2)c1=O [II-90]
57 | 14 | O=C(NCC#Cc1ccc2nccc(C3=CCCNC3)c2c1)c1cncn(Cc2ccc(F)c(F)c2)c1=O [II-91]
58 | 56 | Cc1ccnc2ccc(C#CCNC(=O)c3cncn(Cc4ccc(F)c(F)c4)c3=O)cc12 [II-92]

Row | SMILES | IC50 [nM]
59 | CNc1ncnc2ccc(C#CCNC(=O)c3cccn(Cc4ccsc4)c3=O)cc12 [II-26] | 199
60 | O=C(NCC#Cc1ccc2ncnc(N3CCCC3)c2c1)c1cccn(Cc2ccc(F)c(F)c2)c1=O [II-27] | 52
61 | CNCCCN(C)c1ncnc2ccc(C#CCNC(=O)c3cccn(Cc4ccc(F)c(F)c4)c3=O)cc12 [II-28] | 110
62 | CN1CCCN(c2ncnc3ccc(C#CCNC(=O)c4cccn(Cc5ccc(F)c(F)c5)c4=O)cc23)CC1 [II-29] | 156
63 | O=C(NCC#Cc1ccc2ncnc(N3CC[C@H](O)C3)c2c1)c1cccn(Cc2ccc(F)c(F)c2)c1=O [II-31] | 114
64 | CC(C)(CO)CNc1ncnc2ccc(C#CCNC(=O)c3cccn(Cc4ccc(F)c(F)c4)c3=O)cc12 [II-32] | 124
65 | NC(=O)CCNc1ncnc2ccc(C#CCNC(=O)c3cccn(Cc4ccc(F)c(F)c4)c3=O)cc12 [II-33] | 79
66 | CN(CCCO)c1ncnc2ccc(C#CCNC(=O)c3cccn(Cc4ccc(F)c(F)c4)c3=O)cc12 [II-34] | 59
67 | NC(=O)CNc1ncnc2ccc(C#CCNC(=O)c3cccn(Cc4ccc(F)c(F)c4)c3=O)cc12 [II-35] | 59
68 | CC1(CNc2ncnc3ccc(C#CCNC(=O)c4cccn(Cc5ccc(F)c(F)c5)c4=O)cc23)COC1 [II-36] | 468
69 | O=C(NCC#Cc1ccc2ncnc(NCC(O)CO)c2c1)c1cccn(Cc2ccc(F)c(F)c2)c1=O (centres unmarked) [II-37] | 44
70 | CN1CCC(CNc2ncnc3ccc(C#CCNC(=O)c4cccn(Cc5ccc(F)c(F)c5)c4=O)cc23)C1 (centres unmarked) [II-38] | 97
71 | CC1(O)CCN(c2ncnc3ccc(C#CCNC(=O)c4cccn(Cc5ccc(F)c(F)c5)c4=O)cc23)CC1 [II-41] | 61
72 | CN(C)c1ncnc2ccc(C#CCNC(=O)c3cccn(Cc4cc[nH]n4)c3=O)cc12 [II-42] | 697
73 | CN(C)C(=O)CNc1ncnc2ccc(C#CCNC(=O)c3cccn(Cc4ccc(F)c(F)c4)c3=O)cc12 [II-50] | 182
74 | CNc1ncnc2ccc(C#CCNC(=O)c3cccn(Cc4ccoc4)c3=O)cc12 [II-51] | 770
